Reference: ChEMBL document CHEMBL1201862, “PubChem BioAssay data set” (2004)
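Tested at 5 concentrations; 48 h exposure; 96-well plates; endpoints linearly interpolated, else capped at highest concentration. GI50 is the concentration that inhibits growth by half.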 The source made the active and inactive calls. Rule as the data show it: active = GI50 up to about 1.1 µM and inactive = higher.

Experiments:
Assay in all cases: growth of human tumour cells (NCI), 48 h
HOP-92 = system: HOP-92
U-251 = system: U-251
HCT-116 = system: HCT-116
BT-549 = system: BT-549
RPMI-8226 = system: RPMI-8226
ACHN = system: ACHN
CCRF-CEM = system: CCRF-CEM
SK-MEL-28 = system: SK-MEL-28
MDA-MB-231 = system: MDA-MB-231
SR = system: SR
OVCAR-8 = system: OVCAR-8
SNB-75 = system: SNB-75
OVCAR-3 = system: OVCAR-3
HOP-62 = system: HOP-62
SN12C = system: SN12C
COLO 205 = system: COLO 205
OVCAR-5 = system: OVCAR-5
MDA-MB-435 = system: MDA-MB-435
SK-OV-3 = system: SK-OV-3
HL-60 = system: HL-60
K562 = system: K562
SF-539 = system: SF-539
RXF 393 = system: RXF 393
SF-268 = system: SF-268
T47D = system: T47D
UACC-257 = system: UACC-257
Malme-3M = system: Malme-3M
SK-MEL-2 = system: SK-MEL-2
MOLT-4 = system: MOLT-4
A498 = system: A498
NCI-H23 = system: NCI-H23
NCI-H522 = system: NCI-H522
SF-295 = system: SF-295
OVCAR-4 = system: OVCAR-4
HCC 2998 = system: HCC 2998
UO-31 = system: UO-31
PC-3 = system: PC-3
TK-10 = system: TK-10
CAKI-1 = system: CAKI-1
MCF7 = system: MCF7
Hs-578T = system: Hs-578T
A549 = system: A549
NCI-H460 = system: NCI-H460
EKVX = system: EKVX
KM12 = system: KM12
NCI/ADR-RES = system: NCI/ADR-RES
NCI-H226 = system: NCI-H226
786-0 = system: 786-0
M14 = system: M14
HCT-15 = system: HCT-15
SW-620 = system: SW-620
SK-MEL-5 = system: SK-MEL-5
UACC-62 = system: UACC-62
DU-145 = system: DU-145
IGROV-1 = system: IGROV-1
SNB-19 = system: SNB-19
LOX IMVI = system: LOX IMVI
HT-29 = system: HT-29
MDA-N = system: MDA-N

Measured: GI50

C[N+](C)(C)CC1CCCc2ccccc2C1=O (stereo not given)
active: RPMI-8226 0.265 µM
inactive: HOP-92 13.2 µM | U-251 6.71 µM | HCT-116 1.87 µM | BT-549 19.1 µM | ACHN 5.02 µM | CCRF-CEM 2.32 µM | SK-MEL-28 18.2 µM | MDA-MB-231 16.3 µM | SR 1.64 µM | OVCAR-8 8.28 µM | SNB-75 19.7 µM | OVCAR-3 7.26 µM | HOP-62 18.8 µM | SN12C 6.68 µM | COLO 205 22 µM | OVCAR-5 13.3 µM | MDA-MB-435 5.89 µM | SK-OV-3 20.3 µM | HL-60 1.89 µM | K562 2.49 µM | SF-539 17.4 µM | RXF 393 6.28 µM | SF-268 22 µM | T47D 1.73 µM | UACC-257 13.7 µM | Malme-3M 5.79 µM | SK-MEL-2 10.5 µM | MOLT-4 2.48 µM | A498 14 µM | NCI-H23 17.9 µM | NCI-H522 1.49 µM | SF-295 > 40.5 µM | OVCAR-4 6.92 µM | HCC 2998 20.6 µM | UO-31 16.9 µM | PC-3 16.8 µM | TK-10 21 µM | CAKI-1 4.71 µM | MCF7 2.04 µM | Hs-578T 37.8 µM | A549 4.06 µM | NCI-H460 22.1 µM | EKVX 6.46 µM | KM12 9.86 µM | NCI/ADR-RES 7.06 µM | NCI-H226 21.9 µM | 786-0 2.44 µM | M14 4.52 µM | SW-620 2.04 µM | SK-MEL-5 6.59 µM | UACC-62 12.2 µM | DU-145 > 42.1 µM | IGROV-1 16.6 µM | SNB-19 29 µM
5.98 µM: HCT-15

O=C(N/N=C/c1ccco1)c1cc(I)cc(I)c1O
19.7 µM: HCT-15
inactive: HOP-92 15.6 µM | HCT-116 23.5 µM | BT-549 > 50 µM | RPMI-8226 15.2 µM | LOX IMVI 16.4 µM | ACHN 22 µM | CCRF-CEM > 50 µM | HT-29 6.41 µM | MDA-N 22.9 µM | SK-MEL-28 28.2 µM | OVCAR-8 19.4 µM | SNB-75 37.2 µM | SN12C 9.06 µM | COLO 205 3.02 µM | OVCAR-5 7.85 µM | MDA-MB-435 16.9 µM | HL-60 10.5 µM | K562 27.6 µM | SF-539 11.8 µM | RXF 393 20.7 µM | SF-268 > 50 µM | T47D 26 µM | Malme-3M 22.2 µM | SK-MEL-2 5.22 µM | MOLT-4 26.3 µM | A498 12.9 µM | NCI-H23 21.7 µM | NCI-H522 27.2 µM | OVCAR-4 35.8 µM | UO-31 24 µM | PC-3 35.2 µM | CAKI-1 19.4 µM | MCF7 24.2 µM | Hs-578T 34.5 µM | A549 31.9 µM | EKVX 12.4 µM | NCI/ADR-RES 20.7 µM | NCI-H226 11.4 µM | 786-0 15 µM | M14 8.24 µM | SW-620 22.2 µM | SK-MEL-5 12.4 µM | UACC-62 16.6 µM | DU-145 23.4 µM | IGROV-1 15.8 µM | SNB-19 32.2 µM

Cc1cc2c([nH]c3ccccc32)c(O)c1-c1c(C)cc2c([nH]c3ccccc32)c1O
inactive: HOP-92 15.7 µM | U-251 11.5 µM | HCT-116 14.2 µM | BT-549 18.8 µM | LOX IMVI 16.7 µM | ACHN 14.3 µM | SK-MEL-28 30.5 µM | MDA-MB-231 17.5 µM | OVCAR-8 15.7 µM | SNB-75 14 µM | OVCAR-3 15.8 µM | HOP-62 17.1 µM | SN12C 2.48 µM | SF-539 17 µM | RXF 393 10.5 µM | SF-268 13.8 µM | T47D 15.5 µM | UACC-257 16.5 µM | SK-MEL-2 15.8 µM | NCI-H522 16.7 µM | OVCAR-4 15.3 µM | HCC 2998 10.6 µM | PC-3 13.2 µM | TK-10 17.4 µM | Hs-578T 15.3 µM | A549 12.1 µM | NCI-H460 4.57 µM | EKVX 13.8 µM | KM12 10.1 µM | NCI/ADR-RES 13.9 µM | NCI-H226 18.5 µM | 786-0 13.7 µM | M14 14.8 µM | SW-620 22.9 µM | DU-145 13 µM | IGROV-1 12.4 µM | SNB-19 16.9 µM
